Measured values published in the supplement of paper PMC6315032.

How the values were obtained:
Assay in all cases: apparent dissociation constant (pKDapp, Kinobeads competition, Cheng-Prusoff corrected) (-log10 M); higher = tighter binding
KIT = KIT (UniProt P10721); details: affinity matrix / lysate: Kinobeads, mixed HEK293/K-562/placenta lysate
MAP4K2 = MAP4K2 (UniProt Q12851); details: affinity matrix / lysate: Kinobeads, mixed HEK293/K-562/placenta lysate
PLK4 = PLK4 (UniProt O00444); details: affinity matrix / lysate: Kinobeads, mixed HEK293/K-562/placenta lysate
FLT4 = FLT4 (UniProt P35916); details: affinity matrix / lysate: Kinobeads, mixed HEK293/K-562/placenta lysate
ZAK = ZAK (UniProt Q9NYL2); details: affinity matrix / lysate: Kinobeads, mixed HEK293/K-562/placenta lysate
PDGFRB = PDGFRB (UniProt P09619); details: affinity matrix / lysate: Kinobeads, mixed HEK293/K-562/placenta lysate
GSK3B = GSK3B (UniProt P49841); details: affinity matrix / lysate: Kinobeads, mixed HEK293/K-562/placenta lysate
PRKX = PRKX (UniProt P51817); details: affinity matrix / lysate: Kinobeads, mixed HEK293/K-562/placenta lysate
MAP2K3 = MAP2K3 (UniProt P46734); details: affinity matrix / lysate: Kinobeads, mixed HEK293/K-562/placenta lysate
TESK1 = TESK1 (UniProt Q15569); details: affinity matrix / lysate: Kinobeads, mixed HEK293/K-562/placenta lysate
TGFBR2 = TGFBR2 (UniProt P37173); details: affinity matrix / lysate: Kinobeads, mixed HEK293/K-562/placenta lysate
PI4K2B = PI4K2B (UniProt Q8TCG2); details: affinity matrix / lysate: Lipid Kinobeads, mixed HeLa/Jurkat/K-562 lysate
PIK3CA = PIK3CA (UniProt P42336); details: affinity matrix / lysate: Lipid Kinobeads, mixed HeLa/Jurkat/K-562 lysate
ERN1 = ERN1 (UniProt O75460); details: affinity matrix / lysate: Kinobeads, mixed HEK293/K-562/placenta lysate
LRRK2 = LRRK2 (UniProt Q5S007); details: affinity matrix / lysate: Kinobeads, mixed HEK293/K-562/placenta lysate
MAP2K1 = MAP2K1 (UniProt Q02750); details: affinity matrix / lysate: Kinobeads, mixed HEK293/K-562/placenta lysate
FYN = FYN (UniProt P06241); details: affinity matrix / lysate: Kinobeads, mixed HEK293/K-562/placenta lysate
PIM3 = PIM3 (UniProt Q86V86); details: affinity matrix / lysate: Kinobeads, mixed HEK293/K-562/placenta lysate
IKBKE = IKBKE (UniProt Q14164); details: affinity matrix / lysate: Kinobeads, mixed HEK293/K-562/placenta lysate
MAPK3 = MAPK3 (UniProt P27361); details: affinity matrix / lysate: Kinobeads, mixed HEK293/K-562/placenta lysate
PRKCQ = PRKCQ (UniProt Q04759); details: affinity matrix / lysate: Kinobeads, mixed HEK293/K-562/placenta lysate
MKNK1 = MKNK1 (UniProt Q9BUB5); details: affinity matrix / lysate: Kinobeads, mixed HEK293/K-562/placenta lysate
PIM2 = PIM2 (UniProt Q9P1W9); details: affinity matrix / lysate: Kinobeads, mixed HEK293/K-562/placenta lysate
PRKCD = PRKCD (UniProt Q05655); details: affinity matrix / lysate: Kinobeads, mixed HEK293/K-562/placenta lysate
PDGFRA = PDGFRA (UniProt P16234); details: affinity matrix / lysate: Kinobeads, mixed HEK293/K-562/placenta lysate
YES1 = YES1 (UniProt P07947); details: affinity matrix / lysate: Kinobeads, mixed HEK293/K-562/placenta lysate
EPHB4 = EPHB4 (UniProt P54760); details: affinity matrix / lysate: Kinobeads, mixed HEK293/K-562/placenta lysate
PIK3R4 = PIK3R4 (UniProt Q99570); details: affinity matrix / lysate: Lipid Kinobeads, mixed HeLa/Jurkat/K-562 lysate
CHUK = CHUK (UniProt O15111); details: affinity matrix / lysate: Kinobeads, mixed HEK293/K-562/placenta lysate
RIOK2 = RIOK2 (UniProt Q9BVS4)
MELK = MELK (UniProt Q14680); details: affinity matrix / lysate: Kinobeads, mixed HEK293/K-562/placenta lysate
CSK = CSK (UniProt P41240); details: affinity matrix / lysate: Kinobeads, mixed HEK293/K-562/placenta lysate
CSF1R = CSF1R (UniProt P07333); details: affinity matrix / lysate: Kinobeads, mixed HEK293/K-562/placenta lysate
[1] = affinity matrix / lysate: Kinobeads, mixed HEK293/K-562/placenta lysate
[2] = affinity matrix / lysate: Lipid Kinobeads, mixed HeLa/Jurkat/K-562 lysate

Measured: apparent dissociation constant (-log10 M)

Sequence of RIOK2 (Q9BVS4 whole entry, looked up): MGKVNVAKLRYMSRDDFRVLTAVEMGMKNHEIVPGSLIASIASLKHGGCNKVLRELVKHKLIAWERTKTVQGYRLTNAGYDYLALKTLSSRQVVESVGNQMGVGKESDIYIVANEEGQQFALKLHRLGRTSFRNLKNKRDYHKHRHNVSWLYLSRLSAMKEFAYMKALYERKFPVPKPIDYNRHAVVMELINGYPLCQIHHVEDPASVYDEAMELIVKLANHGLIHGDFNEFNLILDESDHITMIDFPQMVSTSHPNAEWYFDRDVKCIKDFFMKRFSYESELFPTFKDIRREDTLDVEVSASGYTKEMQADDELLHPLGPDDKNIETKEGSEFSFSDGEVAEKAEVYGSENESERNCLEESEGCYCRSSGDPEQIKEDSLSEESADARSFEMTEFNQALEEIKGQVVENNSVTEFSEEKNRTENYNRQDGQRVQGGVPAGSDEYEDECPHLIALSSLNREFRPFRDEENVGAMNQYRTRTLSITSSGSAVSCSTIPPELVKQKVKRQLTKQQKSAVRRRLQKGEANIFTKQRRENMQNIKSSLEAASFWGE
Sequence of PDGFRA (P16234 whole entry): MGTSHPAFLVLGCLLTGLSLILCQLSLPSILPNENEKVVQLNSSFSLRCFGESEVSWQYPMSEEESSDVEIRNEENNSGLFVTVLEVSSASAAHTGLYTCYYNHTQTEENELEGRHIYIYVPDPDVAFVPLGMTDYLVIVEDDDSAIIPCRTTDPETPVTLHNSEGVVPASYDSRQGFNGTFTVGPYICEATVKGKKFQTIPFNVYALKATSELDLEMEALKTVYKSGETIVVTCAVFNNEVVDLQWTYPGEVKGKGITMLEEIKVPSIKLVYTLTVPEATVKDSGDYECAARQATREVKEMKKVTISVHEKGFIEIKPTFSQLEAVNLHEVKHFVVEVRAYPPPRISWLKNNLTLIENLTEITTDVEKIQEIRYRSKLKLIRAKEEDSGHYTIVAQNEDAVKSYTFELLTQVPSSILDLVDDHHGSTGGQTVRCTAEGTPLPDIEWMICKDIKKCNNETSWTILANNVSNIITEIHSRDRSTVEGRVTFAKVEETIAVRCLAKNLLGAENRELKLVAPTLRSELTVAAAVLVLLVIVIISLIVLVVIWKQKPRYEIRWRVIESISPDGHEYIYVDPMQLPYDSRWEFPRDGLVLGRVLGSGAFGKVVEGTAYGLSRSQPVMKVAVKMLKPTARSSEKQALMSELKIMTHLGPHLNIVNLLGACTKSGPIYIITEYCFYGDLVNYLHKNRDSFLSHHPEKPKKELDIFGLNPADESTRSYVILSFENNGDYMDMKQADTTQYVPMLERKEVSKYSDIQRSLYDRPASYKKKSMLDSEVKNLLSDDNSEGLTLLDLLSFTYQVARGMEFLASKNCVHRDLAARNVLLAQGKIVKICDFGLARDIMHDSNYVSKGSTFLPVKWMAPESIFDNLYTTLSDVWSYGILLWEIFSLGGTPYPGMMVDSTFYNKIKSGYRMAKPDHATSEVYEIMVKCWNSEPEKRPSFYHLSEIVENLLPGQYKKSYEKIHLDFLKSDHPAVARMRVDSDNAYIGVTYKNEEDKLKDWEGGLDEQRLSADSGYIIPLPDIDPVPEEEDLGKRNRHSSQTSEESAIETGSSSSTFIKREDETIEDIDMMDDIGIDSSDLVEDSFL
Sequence of PI4K2B (Q8TCG2 whole entry): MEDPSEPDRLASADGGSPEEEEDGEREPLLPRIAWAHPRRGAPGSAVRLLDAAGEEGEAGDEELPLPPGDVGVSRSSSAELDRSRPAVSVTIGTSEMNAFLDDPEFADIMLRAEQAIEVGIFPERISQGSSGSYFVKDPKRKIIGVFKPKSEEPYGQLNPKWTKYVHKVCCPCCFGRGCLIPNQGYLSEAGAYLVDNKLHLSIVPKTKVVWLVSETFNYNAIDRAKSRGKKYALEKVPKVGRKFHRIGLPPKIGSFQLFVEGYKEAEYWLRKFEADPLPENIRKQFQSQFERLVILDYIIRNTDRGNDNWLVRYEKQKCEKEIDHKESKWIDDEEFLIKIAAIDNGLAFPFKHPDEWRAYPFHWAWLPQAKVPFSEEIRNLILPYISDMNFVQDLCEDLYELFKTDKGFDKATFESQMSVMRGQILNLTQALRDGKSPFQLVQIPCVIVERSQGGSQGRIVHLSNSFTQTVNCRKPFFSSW
Sequence of PIK3CA (P42336 whole entry): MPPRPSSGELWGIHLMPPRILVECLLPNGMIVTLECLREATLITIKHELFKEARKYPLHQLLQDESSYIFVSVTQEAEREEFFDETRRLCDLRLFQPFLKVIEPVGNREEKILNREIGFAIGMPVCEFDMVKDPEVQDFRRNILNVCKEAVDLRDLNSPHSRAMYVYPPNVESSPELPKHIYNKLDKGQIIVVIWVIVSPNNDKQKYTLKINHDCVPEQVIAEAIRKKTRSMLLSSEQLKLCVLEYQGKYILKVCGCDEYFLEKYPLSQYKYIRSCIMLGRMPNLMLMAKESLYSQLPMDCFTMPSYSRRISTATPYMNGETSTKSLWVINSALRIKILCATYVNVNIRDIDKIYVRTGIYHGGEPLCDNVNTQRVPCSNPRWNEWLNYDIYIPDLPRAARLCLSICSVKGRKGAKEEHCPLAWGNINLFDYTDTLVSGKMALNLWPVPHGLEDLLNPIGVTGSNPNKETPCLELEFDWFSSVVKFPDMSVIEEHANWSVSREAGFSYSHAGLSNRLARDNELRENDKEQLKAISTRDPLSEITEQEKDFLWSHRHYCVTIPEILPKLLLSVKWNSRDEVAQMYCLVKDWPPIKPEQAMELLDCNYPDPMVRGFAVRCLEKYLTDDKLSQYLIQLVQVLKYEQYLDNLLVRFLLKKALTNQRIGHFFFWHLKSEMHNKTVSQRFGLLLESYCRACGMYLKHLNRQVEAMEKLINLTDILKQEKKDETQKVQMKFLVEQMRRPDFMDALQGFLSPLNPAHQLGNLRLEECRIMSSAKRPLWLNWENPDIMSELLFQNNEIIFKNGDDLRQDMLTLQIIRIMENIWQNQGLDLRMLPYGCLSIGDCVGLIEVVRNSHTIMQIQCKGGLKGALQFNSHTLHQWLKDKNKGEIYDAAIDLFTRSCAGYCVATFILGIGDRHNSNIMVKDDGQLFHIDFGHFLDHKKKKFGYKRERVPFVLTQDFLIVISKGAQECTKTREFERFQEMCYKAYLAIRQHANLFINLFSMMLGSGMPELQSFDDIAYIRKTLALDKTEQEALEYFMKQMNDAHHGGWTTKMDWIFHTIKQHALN
Sequence of EPHB4 (P54760 whole entry): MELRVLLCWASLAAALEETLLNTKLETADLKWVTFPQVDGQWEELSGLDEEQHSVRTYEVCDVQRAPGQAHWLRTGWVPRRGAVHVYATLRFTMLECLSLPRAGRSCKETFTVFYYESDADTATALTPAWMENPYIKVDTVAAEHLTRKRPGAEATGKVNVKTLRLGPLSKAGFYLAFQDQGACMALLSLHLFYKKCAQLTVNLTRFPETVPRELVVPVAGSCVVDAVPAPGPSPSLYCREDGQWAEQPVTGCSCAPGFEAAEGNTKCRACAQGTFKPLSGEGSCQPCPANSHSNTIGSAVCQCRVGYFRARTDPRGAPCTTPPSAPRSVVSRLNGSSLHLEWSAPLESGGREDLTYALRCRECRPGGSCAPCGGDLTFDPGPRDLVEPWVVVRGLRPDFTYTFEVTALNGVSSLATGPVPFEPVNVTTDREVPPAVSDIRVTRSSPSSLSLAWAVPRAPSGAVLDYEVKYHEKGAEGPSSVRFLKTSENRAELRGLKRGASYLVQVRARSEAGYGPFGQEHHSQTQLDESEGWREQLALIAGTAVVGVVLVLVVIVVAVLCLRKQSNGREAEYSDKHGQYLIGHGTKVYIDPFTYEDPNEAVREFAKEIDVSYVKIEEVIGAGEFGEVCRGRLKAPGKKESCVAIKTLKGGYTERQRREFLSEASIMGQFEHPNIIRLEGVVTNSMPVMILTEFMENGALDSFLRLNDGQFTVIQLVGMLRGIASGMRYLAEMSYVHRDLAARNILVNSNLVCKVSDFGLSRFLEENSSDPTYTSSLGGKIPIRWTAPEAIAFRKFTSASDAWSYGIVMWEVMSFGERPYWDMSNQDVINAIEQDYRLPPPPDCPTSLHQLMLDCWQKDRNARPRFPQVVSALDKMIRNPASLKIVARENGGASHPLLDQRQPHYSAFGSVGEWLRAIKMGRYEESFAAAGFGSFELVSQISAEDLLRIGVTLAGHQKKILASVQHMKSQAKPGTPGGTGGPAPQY
Sequence of MAP2K3 (P46734 whole entry): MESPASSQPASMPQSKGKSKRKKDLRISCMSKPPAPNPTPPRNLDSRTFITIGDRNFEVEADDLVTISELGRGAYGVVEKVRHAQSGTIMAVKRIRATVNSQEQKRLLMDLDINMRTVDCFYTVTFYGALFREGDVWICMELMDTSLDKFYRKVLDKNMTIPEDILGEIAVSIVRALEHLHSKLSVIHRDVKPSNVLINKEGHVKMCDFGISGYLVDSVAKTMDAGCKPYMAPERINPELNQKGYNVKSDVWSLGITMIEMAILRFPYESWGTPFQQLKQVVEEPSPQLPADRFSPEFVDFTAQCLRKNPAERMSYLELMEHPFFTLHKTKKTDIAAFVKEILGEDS

COc1ccc(-c2ccc3c(N4CCOC[C@@H]4C)nc(N4CCOC[C@@H]4C)nc3n2)cc1CO [AZD8055]
< 6: KIT | MAP4K2 | PLK4 | FLT4 | ZAK | PDGFRB | GSK3B | PRKX | MAP2K3 | TESK1 | TGFBR2 | PI4K2B | ERN1 | LRRK2 | MAP2K1 | FYN | PIM3 | IKBKE | MAPK3 | PRKCQ | MKNK1 | PIM2 | PRKCD | PDGFRA | YES1 | EPHB4 | PIK3R4 | CHUK | RIOK2; [1] | RIOK2; [2] | MELK | CSK | CSF1R
7.17: PIK3CA

CCNC(=O)Nc1ccc(-c2nc(N3CCOC[C@@H]3C)c3c(n2)C(C)(C)S(=O)(=O)C3)cc1 [CZ415]
< 6: KIT | MAP4K2 | PLK4 | FLT4 | ZAK | PDGFRB | GSK3B | PRKX | MAP2K3 | TESK1 | TGFBR2 | PI4K2B | PIK3CA | ERN1 | LRRK2 | MAP2K1 | FYN | PIM3 | IKBKE | MAPK3 | PRKCQ | MKNK1 | PIM2 | PRKCD | PDGFRA | YES1 | EPHB4 | PIK3R4 | CHUK | RIOK2; [1] | RIOK2; [2] | MELK | CSK | CSF1R
